Here are results for 17 molecules from ChEMBL document CHEMBL3994561 (Medchemcomm, 2016).

One experiment concerns HL-60. The experiment can be described thus: Cytotoxicity against human HL60 cells after 48 hrs by MTT assay. It is filed as functional, cell-based. The note with it: HL-60, 48 h. (Tetrazolium dyes change colour on reduction, which living cells bring about.)
The next experiment deals with NALM-6. The experiment can be described thus: Cytotoxicity against human NALM6 cells after 48 hrs by MTT assay. In kind it is functional, cell-based. The settings on record: NALM-6, 48 h.
Experiment [1] relates to MCF7. Put plainly: Cytotoxicity against human MCF7 cells after 48 hrs by MTT assay. In kind it is functional, cell-based. The settings on record: MCF7, 48 h.
Experiment [2] deals with MCF7. Put plainly: Induction of apoptosis in human MCF7 cells assessed as viable cells at 12.76 +/- 0.46 uM after 24 hrs by annexin V-FITC/propidium iodide staining-based flow cytometric method (reference value: 83.4%). In kind it is functional. A general note: In flow cytometry, cells or beads pass a laser one at a time.
Another experiment relates to HUVEC. Put plainly: Cytotoxicity against human HUVEC cells after 48 hrs by MTT assay. It is filed as cell-based.
The subject of a further experiment is MCF-10A. The experiment can be described thus: Cytotoxicity against human MCF10A cells after 48 hrs by MTT assay. It is filed as cell-based.
The test system of experiment [3] is MCF7. The experiment can be described thus: Induction of apoptosis in human MCF7 cells assessed as early apoptotic cells at 12.76 +/- 0.46 uM after 24 hrs by annexin V-FITC/propidium iodide staining-based flow cytometric method (reference value: 1.7%). In kind it is functional.
In experiment [4] the test system is MCF7. The experiment can be described thus: Induction of apoptosis in human MCF7 cells assessed as late apoptotic cells at 12.76 +/- 0.46 uM after 24 hrs by annexin V-FITC/propidium iodide staining-based flow cytometric method (reference value: 10.1 +/- 0.2%). It is filed as functional.
Experiment [5] concerns MCF7. Put plainly: Induction of apoptosis in human MCF7 cells assessed as necrotic cells at 12.76 +/- 0.46 uM after 24 hrs by annexin V-FITC/propidium iodide staining-based flow cytometric method (reference value: 4.1%). In kind it is functional.
In experiment [6] the test system is MCF7. Put plainly: Induction of apoptosis in human MCF7 cells assessed as upregulation of caspase-3 mRNA level at 12.76 +/- 0.46 uM by quantitative real-time PCR method. In kind it is functional, cell-based. Background: In qPCR the cycle at which signal appears reflects the starting amount.
The test system of experiment [7] is MCF7. The experiment can be described thus: Induction of apoptosis in human MCF7 cells assessed as upregulation of Bax mRNA level at 12.76 +/- 0.46 uM by quantitative real-time PCR method. In kind it is functional, cell-based.
The test system of experiment [8] is MCF7. Put plainly: Induction of apoptosis in human MCF7 cells assessed as downregulation of Bcl-2 mRNA level at 12.76 +/- 0.46 uM by quantitative real-time PCR method. In kind it is functional, cell-based.
The test system of experiment [9] is MCF7. Put plainly: Cell cycle arrest in human MCF7 cells assessed as accumulation at sub G0/G1 phase at 12.76 +/- 0.46 uM after 24 hrs by propidium iodide staining-based flow cytometric analysis (reference value: 1.3%). In kind it is functional.
The test system of experiment [10] is MCF7. Put plainly: Disruption of mitochondrial membrane potential in human MCF7 cells assessed as collapse of the mitochondrial membrane potential at 12.76 +/- 0.46 uM after 24 hrs by JC10 staining-based flow cytometric method (reference value: 23.9%). It is filed as functional.
For experiment [11], the system named is MCF7. Put plainly: Disruption of mitochondrial membrane potential in human MCF7 cells assessed as intact mitochondrial membrane at 12.76 +/- 0.46 uM after 24 hrs by JC10 staining-based flow cytometric method (reference value: 76.1%). In kind it is functional.
Experiment [12] relates to MCF7. The experiment can be described thus: Cell cycle arrest in human MCF7 cells assessed as accumulation at G0/G1 phase at 12.76 +/- 0.46 uM after 24 hrs by propidium iodide staining-based flow cytometric analysis (reference value: 52.2%). In kind it is functional.
For experiment [13], the system named is MCF7. The experiment can be described thus: Cell cycle arrest in human MCF7 cells assessed as accumulation at S phase at 12.76 +/- 0.46 uM after 24 hrs by propidium iodide staining-based flow cytometric analysis (reference value: 25.9%). It is filed as functional.
In experiment [14] the test system is MCF7. The experiment can be described thus: Cell cycle arrest in human MCF7 cells assessed as accumulation at G2/M phase at 12.76 +/- 0.46 uM after 24 hrs by propidium iodide staining-based flow cytometric analysis (reference value: 20.3%). In kind it is functional.
The subject of experiment [15] is MCF7. Put plainly: Cytotoxicity against human MCF7 cells after 24 hrs by MTT assay. It is filed as functional, cell-based. The note with it: MCF7, 24 h.
Experiment [16] in a line: Selectivity index, ratio of IC50 for human MCF10A cells to IC50 for human MCF7 cells. In kind it is functional.
A short description of experiment [17]: Selectivity index, ratio of IC50 for human MCF10A cells to IC50 for human NALM6 cells. In kind it is functional.
Experiment [18] in a line: Selectivity index, ratio of IC50 for human MCF7 cells to IC50 for human MCF10A cells. It is filed as functional.

Each structure is given as a SMILES string. Calls of active or inactive are those of the source. The calls are words filed in the database; no cut-off is given here.

For orientation: IC50 means the concentration that inhibits the measured activity by half. A high value points to lower potency. As to `C=C1C(=O)Oc2ccccc2[C@H]1[C@@H]1CCCC1=O`, the IC50 was found to be 578 µM in the experiment on HL-60, 488 µM in the experiment on NALM-6 and 14.7 µM with MCF7 [1].

On to `C=C1C(=O)Oc2c(OC)cccc2[C@H]1[C@@H]1CCCC1=O` (relative stereo), for which the IC50 in the experiment with HL-60 came to 711 µM; in the experiment with NALM-6, 784 µM; in the experiment with MCF7 [1] it was 15 µM.

`C=C1C(=O)Oc2c(OC)cccc2C1CC(C)=O` (configuration not stated): the half-inhibitory concentration (IC50) is 90.9 µM in the experiment with HL-60, 73.2 µM in the experiment with NALM-6 and 10.5 µM with MCF7 [1].

Take `C=C1C(=O)Oc2ccc(Cl)cc2C1CC(C)=O` (configuration not stated): the IC50 in the experiment with HL-60 was 289 µM; in the experiment with NALM-6, 427 µM; with MCF7 [1], 16.3 µM.

For `C=C1C(=O)Oc2ccc(Cl)cc2[C@H]1[C@@H]1CCCCC1=O` (relative stereo), the IC50 in the experiment with HL-60 is 84.9 µM; in the experiment on NALM-6, 94.6 µM; in the experiment with MCF7 [1] it was 3.45 µM.

On to `C=C1C(=O)Oc2ccc(Cl)cc2[C@H]1[C@@H]1CCc2cc(OC)ccc2C1=O` (relative stereo), for which the IC50 in the experiment with HL-60 worked out at 5.67 µM; in the experiment with NALM-6 it was 1.59 µM; in the experiment with MCF7 [1] it was 77.5 µM.

`C=C1C(=O)Oc2c(OC)cccc2[C@H]1[C@@H]1CCCCC1=O` (relative stereo): the Activity is listed as 64% in the experiment with MCF7 [2]; 2.2% with MCF7 [3]; 28.7% in the experiment on MCF7 [4]; 5% in the experiment with MCF7 [5]; 17.9% in the experiment with MCF7 [9]; 52.5% with MCF7 [10]. In addition, the Activity came to 47.5% in the experiment with MCF7 [11], 36% with MCF7 [12], 29.7% in the experiment on MCF7 [13] and 16.5% in the experiment on MCF7 [14]. Besides, the IC50 with HL-60 came out at 6.06 µM; in the experiment on NALM-6, 4.14 µM; in the experiment with MCF7 [1], 8.75 µM; with HUVEC, 4.7 µM; in the experiment on MCF-10A it was 16.4 µM; in the experiment on MCF7 [15], 12.8 µM. Further, the outcome in the experiment with MCF7 [6], in the experiment on MCF7 [7] and in the experiment on MCF7 [8] was Active. Moreover, the “Ratio IC50” value is given as 2 in [16], 5 in experiment [17] and 5 in experiment [18].

`C=C1C(=O)Oc2c(OC)cccc2[C@H]1[C@@H]1CCc2cc(OC)ccc2C1=O` (relative stereo): the IC50 with HL-60 stood at 3.61 µM; with NALM-6, 0.87 µM; with MCF7 [1], 17.5 µM; in the experiment with HUVEC, 4.87 µM; in the experiment with MCF-10A, 13.6 µM.

With `C=C1C(=O)Oc2ccccc2[C@H]1[C@@H]1Cc2ccccc2C1=O`, the IC50 in the experiment on HL-60 was 247 µM; with NALM-6, 705 µM; in the experiment on MCF7 [1] it was 17 µM.

Regarding `C=C1C(=O)Oc2c(OC)cccc2[C@H]1[C@@H]1Cc2ccccc2C1=O` (relative stereo), the values for the IC50 in the experiment on HL-60, in the experiment on NALM-6 and in the experiment on MCF7 [1] were 5.56 µM, 4.66 µM and 8.57 µM, respectively.

Turning to `C=C1C(=O)Oc2ccccc2[C@H]1[C@@H]1CCCCC1=O`, the IC50 in the experiment on HL-60 came out at 629 µM; in the experiment on NALM-6, 85.6 µM; in the experiment on MCF7 [1], 8 µM.

For `C=C1C(=O)Oc2ccccc2[C@H]1[C@@H]1COCCC1=O` (relative stereo), the IC50 in the experiment on HL-60 came out at 42.7 µM; in the experiment with NALM-6, 13.6 µM; in the experiment with MCF7 [1], 26.3 µM.

Turning to `C=C1C(=O)Oc2ccccc2[C@H]1[C@@H]1Cc2cc(OC)ccc2C1=O` (relative stereo), the IC50 with HL-60 came out at 5.48 µM; in the experiment with NALM-6 it was 0.65 µM; with MCF7 [1] it was 77.6 µM.

`C=C1C(=O)Oc2ccccc2C1CC(C)=O` (configuration not stated): the IC50 turned out to be 84.1 µM with HL-60, 94.4 µM with NALM-6 and 11.5 µM in the experiment on MCF7 [1].

Take `C=C1C(=O)Oc2ccc(Cl)cc2[C@H]1[C@@H]1CCCC1=O` (relative stereo): the half-maximal inhibitory concentration (IC50) was 514 µM in the experiment with HL-60, over 1000 µM in the experiment on NALM-6 and 23 µM with MCF7 [1].

Regarding `C=C1C(=O)Oc2ccccc2[C@H]1[C@@H]1CCc2cc(OC)ccc2C1=O` (relative stereo), the figures for the IC50 in the experiment with HL-60, in the experiment with NALM-6 and in the experiment on MCF7 [1] were 5.29 µM, 0.51 µM and 76.5 µM, respectively.

For `C=C1C(=O)Oc2ccc(Cl)cc2[C@H]1[C@@H]1Cc2ccccc2C1=O` (relative stereo), the IC50 was 7.48 µM with HL-60, 6.56 µM in the experiment with NALM-6 and 15.2 µM with MCF7 [1].
